# Conditions: acidic group
row,SMILES,pKa
1,Cc1c[nH]c(C(=O)O)c1,4.6
2,C=CC[NH+](C)CCCNC(=O)/C=N/O,8.48
3,O=C(Oc1cccc([N+](=O)[O-])c1)C1c2ccccc2-c2ccccc21,9.84
4,Oc1cc[nH+]c(O)c1,1.37
5,O=C1COC(=O)C1[N+](=O)[O-] (stereo not drawn),1.68
6,O=[N+]([O-])c1ccc(O)c(O)c1,6.74
7,[NH3+]C(CC(=O)[O-])C(=O)NC(CC(=O)O)C(=O)O (stereo not drawn),3.4
8,O=c1cnn([C@H]2O[C@@H](CO)[C@H](O)[C@@H]2O)c(=O)[nH]1,6.6
9,OC(c1ccccc1)(c1ccncc1)c1ccncc1,13.1
10,O=S(O)CCCCc1ccccc1,2.23
11,CCOCC(=O)O,3.61
12,CC1(C)NC(=O)NC1=O,9.19
13,Nc1c2ccccc2[nH+]c2ccc(O)cc12,7.71
14,Cc1ccccc1OCC(=O)O,3.17
15,Clc1ncnc2nc[nH]c12,7.75
16,C[N+](C)(C)Cc1ccccc1O,8.71
17,C(C[NH2+]CCc1nnn[nH]1)[NH2+]CCc1nnn[nH]1,3.11
18,C[NH2+]CCS,8.02
19,N#Cc1nn[nH]c1C#N,1.47
20,O=P([O-])(O)C([NH2+]Cc1ccncc1)c1ccccc1O (stereo not drawn),5.2
21,C[N+](C)(C)c1ccc(O)c([N+](=O)[O-])c1,5.03
22,O=CC1c2ccccc2-c2ccccc21,7.4

row,SMILES,pKa
1,CC(C)(C(N)=O)S(N)(=O)=O,9.92
2,CCOC(=O)c1c[nH+]c2cc([N+](=O)[O-])ccc2c1O,4.1
3,Oc1cccc2nnccc12,7.4
4,CC(C)O,16.1
5,Nc1nc([S-])c2[nH]cnc2n1,11.6
6,CC(=O)ONc1cc(=O)n(C)c(=O)n1C,7.01
7,O=[N+]([O-])CSc1ccccc1,6.67
8,Cn1cnc2c(N=O)c(O)ccc21,6.76
9,O=C(O)c1cccc(=O)cc1,3.2
10,O=C1Oc2ccccc2C(=O)C1CC1C(=O)Oc2ccccc2C1=O (stereo not drawn),5.5
11,CN(O)C(=O)c1ccc([N+](=O)[O-])cc1,7.92
12,O=[N+]([O-])c1cccc(S(=O)(=O)Nc2ccccc2)c1,7.5
13,Cc1nc2ccccc2[nH+]c1O,0.48
14,O/N=C/c1ccco1,10.8
15,CC(C)(C)c1ccc(-c2c(O)c2=O)cc1,2.21
16,COc1ccc(C=O)cc1O,8.89
17,O=C(S)c1ccccc1,2.44
18,O=C1CCc2ccc(Cl)cc2C1,12.3
19,Cc1cc(=O)oc2ccc(O)cc12,9.14
20,Nc1nc(O)[nH+]c2nc[nH]c12,4.51
21,CC(=O)NC(CS)C(=O)O (stereo not drawn),3.08
22,Cc1nc2c(O)ccc(O)c2n1C,9.75

row,SMILES,pKa
1,CC(C)CCP(=O)(O)CCC(C)C,3.26
2,Cc1c(Cn2cc[nH+]c2)sc2cc(C(=O)O)ccc12,3.59
3,C/C(=N\O)NO,10.8
4,CC(C)N(Cc1ccccc1O)C(C)C,11.4
5,CCCOC(=S)NC(C)=O,9.34
6,C=C(C)/C(C)=C(\C)O,12
7,Cc1ccc(O)c(CO)c1,10.2
8,Nc1cc(N2CCOCC2)nc(N)n1,-0.35
9,C[N+](=O)[O-],10.5
10,CCCCCC(=O)NO,9.58
11,COc1cccc(CN)c1O,11.1
12,O=C([O-])CS,10.2
13,O=C1CC(Sc2ccccc2)N1 (stereo not drawn),13.3
14,Cc1ccccc1B(O)O,9.74
15,O=C(O)c1ccccc1Br,2.93
16,CCCCCCCCCC[NH2+]CCC(=O)O,3.57
17,O=C(O)C1=C(CO)CC1,4.16
18,Cc1cc(O)ccc1O,10.1
19,CC(C)=C(C#N)C(=O)O,3.04
20,CCC/C=C/C(=O)O,4.71
21,Cc1ccc(SCC(=O)O)cc1,3.57

# Same assay, conditions: basic group
row,SMILES,pKa
1,Cc1ccc(N)cc1-c1cc(N)ccc1C,5
2,c1ccc(Oc2ccccn2)cc1,2.35
3,CO[C@H]1CC=C2CCN3CC[C@H](CO)/C(=C\CO)[C@]23C1,8.42
4,CN(C)c1ncc([N+](=O)[O-])s1,0.48
5,CCCCCCN(CCCCCC)c1ccccc1,4.89
6,CCCN(C)c1ccccc1,5.67
7,Cn1ncc2ccccc21,0.51
8,Cc1cnc(C)c(C)[nH+]1,-3.6
9,COc1ccc2c(c1OC(C)=O)[C@]13CCN(C)[C@H](C2)[C@@H]1CC[C@H](OC)C3,9.31
10,CC[NH+](CC)[C@H]1CCC[C@@H]1N(C)C,5.76
11,Cn1ccnc1-c1nccn1C,4.91
12,Nc1ccnc([S-])n1,10.6
13,NCc1ccc(F)c([O-])c1,10
14,NCc1cccc(O)c1O,8.3
15,N[C@H]1CC(=O)N(CCCC[C@H]([NH3+])C(=O)[O-])C1=O,6
16,N[C@@H]1CCCC[C@@H]1O,9.72
17,N/C(CC(N)c1ccccc1)=N\O (stereo not drawn),8
18,CC(C)N[C@H](c1ccccc1)[C@H](O)c1ccccc1,11.8
19,Nc1c(C(=O)[O-])ncn1[C@H]1O[C@@H](CO)[C@H](O)[C@@H]1O,5.9
20,Cn1cncc(-c2ccccc2)c1=O,1.5
21,Cc1ccccc1-n1nnnc1N,1.23
22,Nc1nnnn1-c1ccccc1,1.12
23,CC1CCCCN1 (stereo not drawn),11

row,SMILES,pKa
1,c1ccc(-c2ccn[nH]2)[nH+]c1,-1.1
2,NC[C@@H](O)[C@H]1NC(N)=N[C@@H]1C(=O)[O-],11.9
3,COC(=N)N,9.72
4,Cc1nn(C)c(C)c1C,4.48
5,CCCn1ccnc1C,8.2
6,O=C([O-])c1cc(-c2ccccc2)nnc1NCCN1CCOCC1,7.07
7,O=C1CCC[C@H]2[C@H]3C[C@@H](CN12)[C@@H]1CCCCN1C3,9.4
8,Nc1cnc2cc3ccccc3cc2c1,4.78
9,O=P([O-])(O)C([NH2+]Cc1ccncc1)c1ccccc1O (stereo not drawn),3.15
10,[O-]c1cc2ccccc2cc1C1=NCCN1,10.8
11,Nc1ccc2cnccc2c1,7.17
12,O=CC1c2ccccc2-c2ccccc21,6.2
13,CC1CN=C(C(C)(C)C)S1 (stereo not drawn),5.02
14,CC(C)(CN)C[NH3+],7.99
15,CCCCCCCCCCCCCCN(CC(O)CC)CC(O)CC (stereo not drawn),5.7
16,Cc1ccncn1,1.99
17,CCC(C)(CC)Nc1ccccc1,6.32
18,Oc1cccc2nnccc12,1.92
19,[O-]c1c(Cl)cc(Cl)c(Cl)c1CN1CCOCC1,8.83
20,CNC(N)=O,0.8
21,CCC(=O)C(c1ccccc1)(c1ccccc1)C(C)CN1CCOCC1 (stereo not drawn),7.12
22,[O-][n+]1cccc2ccccc21,0.7
23,CN(C)CC(C)(C)CN,10.1

row,SMILES,pKa
1,Cc1ccc(N2CCCC2)cc1,4.69
2,CCCCCCN(CC(C)O)CC(O)CC (stereo not drawn),8.9
3,Nc1nc([S-])c2[nH]cnc2n1,8.2
4,CCOCCNc1ccc(OC)cc1,4.99
5,NCC(=O)NN,7.69
6,Nc1ncc(Br)s1,3.61
7,COc1ccccc1/C(=N/CCCN(C)C)c1ccccc1,9
8,Cn1cnc2c(N=O)c(O)ccc21,3.31
9,Nc1cncc2ccccc12,6.28
10,CCc1c(-c2ccccc2)nn(C2CCN(C)CC2)c1[O-],9.15
11,NCC[n+]1ccc2ccccc2c1,6.85
12,Nc1ncnc2c1nnn2Cc1ccco1,2.6
13,CC(C=C(c1cccs1)c1cccs1)N1CCCCC1C (stereo not drawn),7.46
14,C[NH+]1C[C@H](C(=O)O)C[C@@]2(O)c3cccc4[nH]cc(c34)C[C@H]12,3.94
15,OCCc1cnc(P(c2ncc(CCO)[nH]2)c2ncc(CCO)[nH]2)[nH]1,7.7
16,CC(=O)OC(C)CN(C)C (stereo not drawn),8.31
17,CCCCCCCCCCCCCCN(CCO)CC(C)O (stereo not drawn),6.3
18,C[NH+](C)CCCN=C(c1ccccc1)c1ccccc1,5.2
19,Cc1cncc(C)[nH+]1,-4.48
20,Nc1ccc(Cc2ccc([NH3+])cc2)cc1,4
21,Cc1cc(N)c(C)cn1,9.68
22,Cc1nc2c(O)ccc(O)c2n1C,6.47
23,Nc1ncnc2ccccc12,5.79

row,SMILES,pKa
1,CNCCCc1ccccc1,10.6
2,C/C(=N\O)NO,4.95
3,CC(C)N(Cc1ccccc1O)C(C)C,7.55
4,Cc1ccc(N)nc1,7.22
5,CCOCCn1c(CN2CC[NH+](CCCCn3cc(C(=O)O)cn3)CC2)nc2ccccc21,4.9
6,CCN(CC)CC(C)Nc1c2ccc(Cl)cc2nc2ccc(OC)cc12 (stereo not drawn),9.65
7,CC(C)CNCC(C)C,10.6
8,CC[C@]1(O)C[C@H](C)N[C@@H]2CCCC[C@H]21,10.1
9,N#Cc1cc(-c2ccccc2)nnc1NCCN1CCOCC1,6.5
10,CCCCCCCCCCCC[NH2+]CCCN,8.37
11,Nc1cc(N2CCOCC2)nc(N)n1,6.73
12,CCP(=S)(CC)C(=S)NN,5.6
13,[S-]CCNCCc1ccccc1,10.3
14,C[C@@H](CC(C#N)(c1ccccc1)c1ccccc1)N(C)C,8.31
15,c1cncc(-c2ccco2)c1,4.62
16,CC(C)(C)/C(N)=N/O,5.8
17,O[C@@H]1[C@H](O)[C@@H](n2cnc3cncnc32)OC[C@@H]1O,1.8
18,NCCCCCCO,10.6
19,CN(C)c1ncnc2c1cnn2C,4.06
20,COc1cccc(CN)c1O,8.7
21,N=C(N)Nc1nc(N)nc(N)n1,9.4
22,C1CCN(CCCN2CCCCC2)CC1,10.1
23,C[C@@H]1CN[C@@H](C)CN1,9.76

row,SMILES,pKa
1,Cc1n[nH]c2c(N)cccc12,3.18
2,CN1CC[NH2+]CC1,5.05
3,O=C(c1ccccc1)N1CCNCC1,7.79
4,C[C@H](N)CCC(=O)[O-],10.4
5,Cn1c[nH+]c2cccc(N)c21,2.36
6,CC[NH+](CC)CCNc1nc(C)cc(N)n1,6.97
7,COc1ccc2nccc(C(O)C3CCCCN3)c2c1 (stereo not drawn),9.3
8,CN[C@@H]1[C@@H](C)[C@@H]1NC,9.13
9,CC1=CSC2=NCCCN12,10.3
10,NC(=O)CC(=O)c1cccnc1,8.61
11,[O-]c1ccnc([O-])c1,13
12,C[NH+](C)CCN1C=Nc2cccc3cccc1c23,4.64
13,COc1cccc2ccc(C)nc12,5.69
14,Cn1nc(-c2ccccc2)cc/c1=N\CCN1CCOCC1,10.2
15,CCCNCC[S-],10.9
16,Cc1cc(-c2ccccc2)nn2c(C[NH+](C)C)cnc12,3.18
17,CCCCc1ccccc1N,4.26
18,CN1[C@@H]2CC[C@H]1C[C@@H](O)C2,9.86
19,Cc1cnc2ccc(C)c([N+](=O)[O-])c2c1NCCC[NH+](C)C,6.07
20,Cc1cccc(C(C)c2c[nH]cn2)c1C (stereo not drawn),7.04
21,C[NH+](C)Cc1cnc2ccc(-c3ccccc3)nn12,2.99

# From the pKa sets of Baltruschat and Czodrowski (2020)
